Results on ten compounds are retold here after PubChem BioAssay AID2060484 (Molecular Pharmacology Branch, DTP, NCI, 2025).

Molecules are shown by their SMILES. Several values for one entry are separate records, joined by “and”; a condition that tells them apart may be missing. Equal values may be shown once.

The subject of the assay is SUM149PT spheroids with HUVEC/MSC, viability. Nature of the assay: Anticancer human tumor SUM149PT cell line growth inhibition [GQUAD].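 For all read-outs here: spheroids exposed to drugs for seven days before readout.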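 For viability, T/C: percent viability relative to DMSO vehicle control taken as 100%.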 To be noted: for viability, T/C: stronger effect = lower value. The source says: DNA G-quadruplex Stabilizer Agents in Combinations in Complex Spheroids
A high-throughput screen of multi-cell type tumor spheroids was designed to identify active combinations of DNA G-quadruplex stabilizer agents and targeted small molecules. Complex spheroids include a stromal component modeled by human endothelial cells (HUVEC) and fibroblasts modeled by human mesenchymal stem cells (MSCs). The concentration ranges selected for each drug and investigational agent were based upon clinically achievable concentrations if the clinical Cmax of the agent was known.
Compounds. The drugs and investigational agents: pidnarulex (CX-5461; NSC782164), APTO-253 (NSC789042), BRACO-19 (NSC847499), peposertib (NSC802822), ceralasertib (NSC780249), elimusertib (NSC800525), camonsertib (NSC841442), AZD-1390 (NSC803789), olaparib (NSC753686), talazoparib (NSC767125), ART-558 (NSC835418), sotorasib (NSC818433), MRTX-1133 (NSC836407), SN-38 (NSC673596), topotecan (NSC609699), etoposide (NSC141540), doxorubicin (NSC123127), gemcitabine (NSC613327), 5-fluorouracil (NSC19893), paclitaxel (NSC125973), vemurafenib (NSC761431), panobinostat (NSC761190), R-306465 (JNJ-16241199; NSC773264), adavosertib (NSC754352), TP-3654 (NSC805149), carboplatin (NSC241240), KSQ-4279 (NSC840948), and staurosporine (NSC755774) were obtained from the National Cancer Institute (NCI) Developmental Therapeutics Program Chemical Repository (34). The FDA-approved anticancer drug set is available from the NCI Developmental Therapeutics Program. […] The stock solutions were prepared in dimethyl sulfoxide (DMSO, Sigma-Aldrich, St. Louis, MO, cat. D2650) at 800-fold the tested concentration and stored at -70 degrees C prior to their use. All drugs and investigational agents were tested over a range starting from a high concentration at or near the clinical Cmax and decreasing in half-log increments. If the clinical Cmax for an agent had not been determined, the highest concentration tested was 10 microM.
2.3 Cell Culture. All cells were maintained in an incubator at 37 degrees C and 5% CO2 with 95% humidity. The PDC lines were cultured according to standard operating procedures established by the NCI PDMR. All PDCs were thawed and cultured in Matrigel-coated flasks prepared with a working solution of 1X Ham's F-12 nutrient mix, without supplementation (Invitrogen, cat. 11765054), 100 U/mL penicillin-streptomycin (Invitrogen, cat. 15140122), and 2.5% Matrigel (Corning Inc., cat. 354248) for the first three passages. The 857933-349-R-J2-PDC line was cultured in 6C/Colon 1B media, which includes advanced DMEM/F-12 (Thermo Fisher Scientific, cat. 12634028), 10 mM HEPES (Thermo Fisher Scientific, cat. 15630080), 1X GlutaMAX supplement (Thermo Fisher Scientific, cat. 35050061), 0.1 mg/mL primocin (InvivoGen, cat. ant-pm-2), 10% defined fetal bovine serum, heat inactivated (HyClone Laboratories Inc., cat. SH30070.03HI), 50% L-WRN conditioned media (ATCC, cat. CRL-3276), 1.25 mM N-Acetyl-L-cysteine (Sigma-Aldrich, cat. A9165), 10 mM nicotinamide (Sigma-Aldrich, cat. N0636), 1X B-27 supplement (Thermo Fisher Scientific, cat. 17504044), 1X N-2 supplement (Thermo Fisher Scientific, cat. 17502048), 10 microM Y-27632 dihydrochloride (Tocris Bioscience, cat. 1254), and 50 ng/mL human EGF recombinant protein (Thermo Fisher Scientific, cat. PHG0311). The 485176-168-R4-J1-PDC line was cultured in Panc media, which includes all 6C/Colon 1B media components plus 100 ng/mL human FGF-10 (Thermo Fisher Scientific, cat. 100-26), 500 nM SB-431542 (Selleckchem, cat. S1067), and gastrin (Tocris, cat. 3006).
[…]

As for `COc1cc(C2c3cc4c(cc3C(OC3OC5COC(C)OC5C(O)C3O)C3COC(=O)C23)OCO4)cc(OC)c1O` (centres undefined), the viability, T/C (in general, the result in the treated group divided by that in the control group, in per cent) was 99.6% and 98.6% and 97.5% (compound 0.0316 µM); 88.2% and 81.7% (2×) (compound 0.1 µM); 55.6% and 52.5% and 61.4% (compound 0.316 µM); 49.3% and 48.9% and 58.8% (compound 1 µM); 36% and 29.3% and 42.2% (compound 3.16 µM); 18.6% and 14.3% and 22% (compound 10 µM). For the same compound, the IC50 (usually the concentration that inhibits the measured activity by half) (curve of compound) is 837 nM and 645 nM and 1340 nM.
`COc1ccc([C@@H](O)c2cc(-c3ncnc4cc(N5CCOCC5)ccc34)c(F)cc2Cl)nn1`: the viability, T/C (compound 0.0316 µM) was 91.9% and 96.4% and 101%; the viability, T/C (compound 0.1 µM) was 89.4% and 85.8% and 88.5%; the viability, T/C (compound 0.316 µM) is 82.2% and 83.3% and 78.4%; the viability, T/C (compound 1 µM) is 55.6% and 57.7% and 45%; the viability, T/C (compound 3.16 µM) is 35% and 38.2% and 27.2%; the viability, T/C (compound 10 µM) is 22.3% and 28.1% and 20.7%. In addition, the IC50 (curve of compound) was 1420 nM and 1620 nM and 867 nM.
`COc1cccc2c1C(=O)c1c(O)c3c(c(O)c1C2=O)CC(O)(C(=O)CO)CC3OC1CC(N)C(O)C(C)O1` (centres undefined): the viability, T/C by setting is: (compound 0.0316 µM) 89.5% and 100% and 94%; (compound 0.1 µM) 56.8% and 67.1% and 55.3%; (compound 0.316 µM) 39.5% and 52.4% and 38.2%; (compound 1 µM) 16.9% and 25.1% and 15.2%; (compound 3.16 µM) 1.91% and 4.16% and 1.88%; (compound 10 µM) 1.41% and 1.73% and 1.61%. For the same compound, the IC50 (curve of compound) was 159 nM and 270 nM and 147 nM.
In the case of `Cc1[nH]c2ccccc2c1CCNCc1ccc(/C=C/C(=O)NO)cc1`, the viability, T/C (compound 0.000999 µM) is 104% and 108% and 97.7%; the viability, T/C (compound 0.00316 µM) is 106% and 89.7% and 105%; the viability, T/C (compound 0.00999 µM) was 90.3% and 107% and 101%; the viability, T/C (compound 0.0316 µM) is 94.4% and 97.2% and 110%; the viability, T/C (compound 0.0999 µM) was 92.1% and 91.4% and 106%; the viability, T/C (compound 0.316 µM) was 41.8% and 37.1% and 34.2%. The IC50 (curve of compound) is 264 nM and 241 nM and 244 nM.
As for `Cc1cccc(N(C)C(=O)C2C(O)CCN2c2nc(C)cc(C(F)(F)F)c2C#N)c1` (centres undefined), the viability, T/C is 104% and 99.7% and 111% (compound 0.0316 µM); 97.8% and 92.2% and 88.8% (compound 0.1 µM); 82.7% and 99.5% and 103% (compound 0.316 µM); 89% and 97.5% and 98.3% (compound 1 µM); 102% and 110% and 105% (compound 3.16 µM); 103% and 108% and 100% (compound 10 µM). Where the note is “curve of compound”, the IC50 was > 10000 nM.
`Cc1cnc(CNC(=O)c2c(=O)c3ccc(N4CCCN(C)CC4)nc3n3c2sc2ccccc23)cn1`: the viability, T/C was 87.8% [middle of 12 runs] (compound 0.0316 µM); 70% [middle of 12 runs] (compound 0.1 µM); 57.5% [middle of 12 runs] (compound 0.316 µM); 46.9% [middle of 12 runs] (compound 1 µM); 36.2% [middle of 12 runs] (compound 3.16 µM). Under “compound alone, run of 03/18/2024”, the IC50 is 725 nM [middle of 12 runs].
Consider `Cn1ncnc1[C@H]1c2n[nH]c(=O)c3cc(F)cc(c23)N[C@@H]1c1ccc(F)cc1`, for which the viability, T/C is, setting by setting: (compound 0.000999 µM) 98.5% and 103% and 109%; (compound 0.00316 µM) 97.1% and 96.5% and 102%; (compound 0.00999 µM) 97.5% and 93.8% and 91.6%; (compound 0.0316 µM) 81.4% and 91.5% and 83.6%; (compound 0.0999 µM) 68.1% (2×) and 91.5%; (compound 0.316 µM) 54.4% and 76.8% and 53.9%. In addition, the IC50 (curve of compound) is > 316 nM.
As to `Nc1ccn(C2OC(CO)C(O)C2(F)F)c(=O)n1` (centres undefined), the viability, T/C is, setting by setting: (compound 0.0316 µM) 74.9% and 85.4% and 74.1%; (compound 0.1 µM) 37.6% and 48.4% and 42%; (compound 0.316 µM) 24.5% and 38.1% and 20.7%; (compound 1 µM) 23.8% and 31.2% and 18.5%; (compound 3.16 µM) 16.5% (2×) and 24.5%; (compound 10 µM) 15.4% and 24.8% and 17%. The IC50 (curve of compound) was 69.3 nM and 108 nM and 75.1 nM.
On to `O=C(c1cc(Cc2n[nH]c(=O)c3ccccc23)ccc1F)N1CCN(C(=O)C2CC2)CC1`, for which the viability, T/C reads like this: (compound 0.0316 µM) 92.5% and 110% and 104%; (compound 0.1 µM) 97.8% and 93.5% and 82.5%; (compound 0.316 µM) 92.7% and 102% and 99.8%; (compound 1 µM) 108% and 96.9% and 101%; (compound 3.16 µM) 106% and 108% and 97.4%; (compound 10 µM) 70.6% and 86.7% and 69.7%. The IC50 (curve of compound) is > 10000 nM.
For the compound `O=c1[nH]cc(F)c(=O)[nH]1`, the viability, T/C reads like this: (compound 0.0316 µM) 103% and 95.7% and 106%; (compound 0.1 µM) 93.6% and 90.8% and 93.9%; (compound 0.316 µM) 108% and 110% and 101%; (compound 1 µM) 102% and 107% and 96%; (compound 3.16 µM) 56.9% and 55.7% and 61.6%; (compound 10 µM) 51.6% and 43.3% and 50.6%. Moreover, the IC50 (curve of compound) was > 10000 nM and 5360 nM.
